Assay results: patent US9144594B2, “Cathepsin L mediated diseases and associated methods and products” (University of Miami, priority 2005, dated 2015)

Columns and labels:
[1] = tested on: dynamin-dynamin interactions; experiment: FLIM analysis of dynamin-dynamin interactions (self-assembly) in podocytes; type: cell-based, mouse; conditions: for Mean Lifetime (γ1): Table 4, donor GTPase-a488, acceptor Hudy1-a568, in ps; for dynamin self-assembly by FLIM, in words: podocytes pretreated
Protocol: In one embodiment the cell-based assay to monitor dynamin-dynamin interactions is performed on a cultured mouse podocyte cell line and the readout of dynamin self-assembly using fluorescence lifetime imaging microscopy (FLIM). FLIM is based on the fluorescence resonance energy transfer (FRET) between the donor and acceptor that shortens the lifetime of the donor if the acceptor distance is within ≈100 Å (10 nm). […] The assay is based on overexpressing dynamin in podocytes, and subsequently staining fixed cells with monoclonal anti-dynamin antibodies that have been conjugated with donor or acceptor florophores. In one embodiment of the invention, Alexa-488 is used as the donor florophore and Alexa-568 is used as the acceptor florophore. In yet another embodiment the donor florophore is dynamin conjugated enhanced-cyan fluorescence protein (ECFP) and the acceptor is dynamin conjugated enhanced yellow-fluorescence protein (EYFP). It will be appreciated by the person of ordinary skill in the art that numerous combinations of FRET donor and acceptors can be used, which are readily available and known. In one embodiment, the FLIM assay is carried out in COS cells and the donor can be selected from the list consisting of: ECFP-WT, ECFP-1690K, ECFP-K44A, ECFP-K694A, and the -acceptor can be selected from the list consisting of: EYFP, EYFP-WT, EYFP-K44A, EYFP-1690K, EYFP-K694A. In yet another embodiment the FLIM assay is performed in podocytes and the donor is GTPase-Alexa488 and the acceptor is selected from the list consisting of: DAM-Alexa568, GTPase-Alexa568, and Hudyl-Alexa568. Cells are stained by mixing both donor and acceptor florophores in equal amounts, and examining the spatially-restricted lifetime shortening in cells detects the localization of dynamin-dynamin interactions in cells. Since dynamin-dynamin interactions are vital for the function of the podocyte, it will be appreciated by the person of ordinary skill in the art that this assay can now be used to screen peptides, small molecules or drugs which can affect these molecular interactions. For example such molecules are cytocholasin D, jasplakinolide, colchisine, dynK44A, dynK694A, dynWT, dynI690K, dynR725A (SEQ ID NO.4), dynL356Q, G358V, (SEQ ID NO.3) any combination thereof, etc.
In order to test the hypothesis that self-assembly of dynamin was protecting its cathepsin L processing in cultured podocytes, dynamin self-assembly in live cells was examined using fluorescence lifetime imaging microscopy (FLIM). FLIM is based on the fluorescence resonance energy transfer (FRET) between the donor and the acceptor that shortens the lifetime of the donor if the acceptor distance is within ≈100 Å (10 nm). […] A FLIM-assay was developed that specifically detects dynamin self-assembly into the higher order structures in podocytes. The assay is based on overexpressing dynamin in podocytes, and subsequently staining fixed cells with monoclonal anti-dynamin antibodies that have been conjugated with either Alexa-488 (donor florophore) or Alexa-568 (acceptor florophore). Cells are stained by mixing both florophores in equal amounts, and examining lifetime of Alexa-488. […] Importantly, FRET only occurred in the vicinity of the membrane. […] Thus, both dominant activating mutants, dynK694A and dynR725A, are impaired for assembly into a supramolecular structures in podocytes under normal conditions. […] Loss of FRET measured FLIM correlates with the loss of p40 proteolytic fragment in cultured podocytes. And presence of p40 in cells expressing dynR725A under normal conditions correlates with the lack of dynR725A assembly detected by FLIM. The opposite is true for the dynWT; lack of p40 under control conditions when FLIM is present, and appearance of the p40 upon LPS treatment with no measurable FRET. […] Finally, proteolytic processing of dynamin after LPS treatment is also observed in vivo. […]

[2] = tested on: dynamin-dynamin interactions; experiment: FLIM analysis of dynamin-dynamin interactions in live COS cells; type: cell-based; conditions: for dynamin-dynamin interactions measured by FLIM, in words: COS cells pre-treated; for Mean Lifetime (γ1) ps: Table 3
From the text: FLIM is based on the fluorescence resonance energy transfer (FRET) between the donor and acceptor that shortens the lifetime of the donor if the acceptor distance is within ≈100 Å (10 nm). […] To this end, dynamin was tagged with either ECFP or EYFP on its N- and C-termini. Fusion proteins were expressed in COS cells, because these cells are flattened and have minimal background autofluorescence, which allows clear visualization of cells by wide-field microscopy.
The observed decrease in fluorescence lifetime of CFP-dynamin in cells expressing EYFP-dynamin could result from interactions between dynamin monomers within tetramers/dimers, or from interactions between assembled tetramers/dimmers into higher order structures (FIG. 8C). To distinguish these two possibilities, we used FLIM to examine dynI690K. […] The longer average lifetimes of dynI690K than dynwt argue strongly that the assay detects higher order dynamin self-assembly and not tetramer formation.

[3] = donor CFP-WT, acceptor YFP-WT, cells treated with the substance

Row | Molecule | dynamin-dynamin interactions measured by FLIM, in words [2] | Mean Lifetime (γ1) ps [2, 3] [ps] | also measured
1 | COc1cc2c(c(OC)c1OC)-c1ccc(OC)c(=O)cc1[C@@H](NC(C)=O)CC2 [Colchisine, reference compound] | – | – | Mean Lifetime (γ1) [1]: 2295 ± 98
2 | C=C1[C@@H](C)[C@H]2[C@H](Cc3ccccc3)NC(=O)[C@]23[C@H](OC(C)=O)/C=C/[C@@](C)(O)C(=O)[C@@H](C)C/C=C/[C@H]3[C@@H]1O [Cyto. D, cytochalasin D] | significantly promoted dynamin-dynamin interactions | 510 ± 29 | dynamin self-assembly by FLIM, in words [1]: decrease in the lifetime of alexa 488 is detected through the cytoplasm
3 | C/C1=C\[C@H](C)C[C@H](C)OC(=O)C[C@H](c2ccc(O)cc2)NC(=O)[C@@H](Cc2c(Br)[nH]c3ccccc23)N(C)C(=O)[C@H](C)NC(=O)[C@@H](C)C1 [Jaspl., jasplakinolide, reference compound] | had no effect | 845 ± 263 | Mean Lifetime (γ1) [1]: 2254 ± 58; dynamin self-assembly by FLIM, in words [1]: did not effect dynamin self-assembly at the membrane
4 | COC(=O)Nc1nc2ccc(C(=O)c3cccs3)cc2[nH]1 [nocodazole] | had no effect on dynamin oligomerization | – | –
5 | b-methyl-cyclodextrin [MBCD] | occurred unchanged | 916 ± 427 | –
6 | CFP-1690K: dynI690K tagged with ECFP (protein, left off: large carriers, dynI690K tagged with ECFP) MGNRGMEDLIPLVNRLQDAFSAIGQNADLDLPQIAVVGGQSAGKSSVLENFVGRDFLPRGSGIVTRRPLVLQLVNATTEYAEFLHCKGKKFTDFEEVRLEIEAETDRVTGTNKGISPVPINLRVYSPHVLNLTLVDLPGMTKVPVGDQPPDIEFQIRDMLMQFVTKENCLILAVSPANSDLANSDALKVAKEVDPQGQRTIGVITKLDLMDEGTDARDVLENKLLPLRRGYIGVVNRSQKDIDGKKDITAALAAERKFFLSHPSYRHLADRMGTPYLQKVLNQQLTNHIRDTLPGLRNKLQSQLLSIEKEVEEYKNFRPDDPARKTKALLQMVQQFAVDFEKRIEGSGDQIDTYELSGGARINRIFHERFPFELVKMEFDEKELRREISYAIKNIHGIRTGLFTPDMAFETIVKKQVKKIREPCLKCVDMVISELISTVRQCTKKLQQYPRLREEMERIVTTHIREREGRTKEQVMLLIDIELAYMNTNHEDFIGFANAQQRSNQMNKKKTSGNQDEILVIRKGWLTINNIGIMKGGSKEYWFVLTAENLSWYKDDEEKEKKYMLSVDNLKLRDVEKGFMSSKHIFALFNTEQRNVYKDYRQLELACETQEEVDSWKASFLRAGVYPERVGDKEKASETEENGSDSFMHSMDPQLERQVETIRNLVDSYMAIVNKTVRDLMPKTIMHLMKNNTKEFIFSELLANLYSCGDQNTLMEESAEQAQRRDEMLRMYHALKEALSIIGDINTTTVSTPMPPPVDDSWLQVQSVPAGRRSPTSSPTPQRRAPAVPPARPGSRGPAPGPPPAGSALGGAPPVPSRPGASPDPFGPPPQVPSRPNRAPPGVPSRSGQASPSRPESPRPPFDL | – | – | Mean Lifetime (γ1) ps ([2]; acceptor YFP not fused to dynamin): 1838 ± 309 ps; Mean Lifetime (γ1) ps ([2]; donor alone, no acceptor): 2292 ± 297 ps
7 | CFP-K44A: dynK44A tagged with ECFP (protein, left off: large carriers, dynK44A tagged with ECFP) MGNRGMEDLIPLVNRLQDAFSAIGQNADLDLPQIAVVGGQSAGASSVLENFVGRDFLPRGSGIVTRRPLVLQLVNATTEYAEFLHCKGKKFTDFEEVRLEIEAETDRVTGTNKGISPVPINLRVYSPHVLNLTLVDLPGMTKVPVGDQPPDIEFQIRDMLMQFVTKENCLILAVSPANSDLANSDALKVAKEVDPQGQRTIGVITKLDLMDEGTDARDVLENKLLPLRRGYIGVVNRSQKDIDGKKDITAALAAERKFFLSHPSYRHLADRMGTPYLQKVLNQQLTNHIRDTLPGLRNKLQSQLLSIEKEVEEYKNFRPDDPARKTKALLQMVQQFAVDFEKRIEGSGDQIDTYELSGGARINRIFHERFPFELVKMEFDEKELRREISYAIKNIHGIRTGLFTPDMAFETIVKKQVKKIREPCLKCVDMVISELISTVRQCTKKLQQYPRLREEMERIVTTHIREREGRTKEQVMLLIDIELAYMNTNHEDFIGFANAQQRSNQMNKKKTSGNQDEILVIRKGWLTINNIGIMKGGSKEYWFVLTAENLSWYKDDEEKEKKYMLSVDNLKLRDVEKGFMSSKHIFALFNTEQRNVYKDYRQLELACETQEEVDSWKASFLRAGVYPERVGDKEKASETEENGSDSFMHSMDPQLERQVETIRNLVDSYMAIVNKTVRDLMPKTIMHLMINNTKEFIFSELLANLYSCGDQNTLMEESAEQAQRRDEMLRMYHALKEALSIIGDINTTTVSTPMPPPVDDSWLQVQSVPAGRRSPTSSPTPQRRAPAVPPARPGSRGPAPGPPPAGSALGGAPPVPSRPGASPDPFGPPPQVPSRPNRAPPGVPSRSGQASPSRPESPRPPFDL | – | – | Mean Lifetime (γ1) ps ([2]; acceptor YFP fused to the same dynamin variant): 1858 ± 187 ps
